Experimental data as given in ChEMBL document CHEMBL4130628, “Identification and Pharmacological Profile of an Indane Based Series of Ghrelin Receptor Full Agonists” (J Med Chem, 2018).

Assays:
[1] = 1-octanol/aqueous buffer distribution coefficient, log D of compound at pH 7.4; type: physicochemical
[2] = molecular target: T1, Growth hormone secretagogue receptor type 1 (Homo sapiens, UniProt Q92847); experiment: Displacement of human [125I]-ghrelin from GHS-R1a (unknown origin) expressed in HEK293 cell membranes after 1 hr by radioligand binding assay
T1 sequence (Q92847 whole entry): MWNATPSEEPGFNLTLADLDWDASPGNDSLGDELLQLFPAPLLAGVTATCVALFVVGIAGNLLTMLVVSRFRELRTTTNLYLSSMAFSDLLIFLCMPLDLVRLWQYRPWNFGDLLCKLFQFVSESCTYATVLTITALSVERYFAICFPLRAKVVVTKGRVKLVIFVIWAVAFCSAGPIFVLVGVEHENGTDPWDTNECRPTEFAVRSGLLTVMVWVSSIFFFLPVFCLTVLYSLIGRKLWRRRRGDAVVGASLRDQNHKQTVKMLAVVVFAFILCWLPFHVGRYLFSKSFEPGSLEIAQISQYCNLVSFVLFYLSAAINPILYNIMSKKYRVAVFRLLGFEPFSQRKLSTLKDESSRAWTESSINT

[3] = molecular target: T1, Growth hormone secretagogue receptor type 1; experiment: Agonist activity at human GHS receptor assessed as intracellular myo-IP1 secretion after 90 mins by HTRF analysis; type: functional, cell-based
[4] = 1-octanol/aqueous buffer, read-out: logD

Row | logD [1, 4] | IC50 ([2]; read-out: IC50) [nM] | EC50 ([3]; read-out: EC50) [nM] | logD ([1]; octanol/water) | EC50 ([3]; read-out: pEC50 (converted)) [nM] | IC50 ([2]; read-out: pIC50 (converted)) [nM] | pIC50 ([2]; hek293) | Structure (SMILES)
1 | 1.4 | 343 | 250 | – | – | – | – | CN1CC[C@H](C(=O)N[C@H]2c3ccccc3C[C@@H]2NC(=O)c2ccc3c(ccn3C)c2)C1
2 | 4 | – | 7 | – | – | – | – | Cn1ccc2cc(C(=O)N[C@H]3Cc4ccccc4[C@@H]3NC(=O)c3cnccc3N)cc(F)c21
3 | 2.1 | 107 | 36 | – | – | – | – | CN1CCCCC(C(=O)N[C@H]2c3ccccc3C[C@@H]2NC(=O)c2ccc3c(ccn3C)c2)C1 (stereo in doubt; 27)
4 | 2.1 | 556 | 28 | – | – | – | – | CN1CCC[C@H](C(=O)N[C@H]2c3ccccc3C[C@@H]2NC(=O)c2ccc3c(ccn3C)c2)C1
5 | 1.8 | 184 | > 740 | – | > 794 | – | – | CN1CCC[C@@H]1CC(=O)N[C@H]1c2ccccc2C[C@@H]1NC(=O)c1ccc2c(ccn2C)c1
6 | 2.1 | 187 | 44 | – | – | – | – | N#Cc1ccc2[nH]c(C(=O)N[C@H]3Cc4ccccc4[C@@H]3NC(=O)c3cnccc3N)cc2c1
7 | 2.4 | > 2900 | 274 | – | – | > 3160 | – | CN1CCO[C@@H](C(=O)N[C@H]2c3ccccc3C[C@@H]2NC(=O)c2ccc3c(ccn3C)c2)C1
8 | 1.7 | 29 | 19 | – | – | – | – | CN1CCC[C@H]1CC(=O)N[C@H]1c2ccccc2C[C@@H]1NC(=O)c1ccc2c(ccn2C)c1
9 | 2.6 | – | 137 | – | – | – | – | Cc1ccc2[nH]c(C(=O)N[C@H]3Cc4ccccc4[C@@H]3NC(=O)[C@@H]3CNCCOC3)cc2c1
10 | 3.1 | – | 135 | – | – | – | – | Cn1ccc2cc(C(=O)N[C@H]3Cc4ccccc4[C@@H]3NC(=O)c3cnccc3N)c(F)cc21

The remaining lines, values behind:

Row | Structure (SMILES) | logD [1, 4] | IC50 ([2]; read-out: IC50) [nM] | EC50 ([3]; read-out: EC50) [nM] | logD ([1]; octanol/water) | EC50 ([3]; read-out: pEC50 (converted)) [nM] | IC50 ([2]; read-out: pIC50 (converted)) [nM] | pIC50 ([2]; hek293)
11 | CN1CCC[C@@H](C(=O)N[C@H]2c3ccccc3C[C@@H]2NC(=O)c2ccc3c(ccn3C)c2)C1 | 1.9 | 528 | 170 | – | – | – | –
12 | Nc1ccncc1C(=O)N[C@H]1c2ccccc2C[C@@H]1NC(=O)c1cc2ccccc2[nH]1 | 2.4 | 49 | 25 | – | – | – | –
13 | CN1CCCCC(C(=O)N[C@H]2c3ccccc3C[C@@H]2NC(=O)c2ccc3c(ccn3C)c2)C1 (stereo in doubt; 28) | – | 189 | 76 | 1.6 | – | – | –
14 | CN1N=C2CCN(C(=O)[C@@H](COCc3ccccc3)NC(=O)C(C)(C)N)C[C@@]2(Cc2ccccc2)C1=O [CAPROMORELIN] | – | 22 | 0.9 | – | – | – | –
15 | CC(=O)N1CCO[C@H](C(=O)N[C@H]2c3ccccc3C[C@@H]2NC(=O)c2ccc3c(ccn3C)c2)C1 | 2.2 | – | > 7700 | – | > 10000 | – | –
16 | CN1CC[C@@H](C(=O)N[C@H]2c3ccccc3C[C@@H]2NC(=O)c2ccc3c(ccn3C)c2)C1 | 1.4 | 288 | 129 | – | – | – | –
17 | Cn1c(C(=O)N[C@H]2Cc3ccccc3[C@@H]2NC(=O)c2cnccc2N)cc2ccccc21 | 4.1 | 246 | 15 | – | – | – | –
18 | CN1CCCO[C@H](C(=O)N[C@H]2c3ccccc3C[C@@H]2NC(=O)c2ccc3c(ccn3C)c2)C1 | 2.3 | 71 | 10 | – | – | – | –
19 | Cc1ccc2[nH]c(C(=O)N[C@H]3Cc4ccccc4[C@@H]3NC(=O)[C@H]3COCCN(C)C3)cc2c1 | 3.7 | – | 21 | – | – | – | –
20 | Nc1ccncc1C(=O)N[C@H]1c2ccccc2C[C@@H]1NC(=O)c1cc2c(F)cc(F)cc2[nH]1 | 3.1 | 14 | 3 | – | – | – | –
21 | Cn1ccc2c(F)c(C(=O)N[C@H]3Cc4ccccc4[C@@H]3NC(=O)c3cnccc3N)ccc21 | 2.9 | 13 | 3 | – | 10 | – | –
22 | Nc1ccncc1C(=O)N[C@H]1c2ccccc2C[C@@H]1NC(=O)c1nc2cc(F)c(F)cc2[nH]1 | 2.4 | 89 | 23 | – | – | – | –
23 | CN1CCCO[C@@H](C(=O)N[C@H]2c3ccccc3C[C@@H]2NC(=O)c2ccc3c(ccn3C)c2)C1 | 2.3 | > 1000 | 262 | – | – | – | < 6
